Assay results: publication PMC9215129, “An acetyltransferase controls the metabolic flux in rubromycin polyketide biosynthesis by direct modulation of redox tailoring enzymes” (Chemical Science, 2022)

What was measured:
[1] = molecular target: T1, HyalO10 (Streptomyces hyaluromycini, UniProt Z9NP16K308); assay: HPLC coupled cascade assay, 6a/6b formation; assay type: biochemical; conditions: 5a/5b generated in situ (GrhO5, GrhO1, GrhO6, HyalJ, NADPH); redox form not resolved
T1 construct: heterologously produced and purified; hyaluromycin gene cluster, homologue of GrhO10
T1 sequence (Z9NP16K308 1-249): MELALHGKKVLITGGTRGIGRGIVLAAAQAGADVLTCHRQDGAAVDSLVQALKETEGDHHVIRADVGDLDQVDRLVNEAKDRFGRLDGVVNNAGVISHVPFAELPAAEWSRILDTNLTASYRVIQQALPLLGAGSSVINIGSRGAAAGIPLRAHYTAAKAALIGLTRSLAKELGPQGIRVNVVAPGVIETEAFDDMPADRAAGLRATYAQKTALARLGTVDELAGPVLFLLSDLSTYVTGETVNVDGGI

[2] = molecular target: T2, HyalJ (Streptomyces hyaluromycini, UniProt Z9LXF2D8B5); assay: co-purification from E. coli, UPLC-HRMS of released ligand; assay type: binding; conditions: acyl donor
T2 construct: recombinant from E. coli, N-terminal GB1 solubility tag; GNAT, homologue of GrhJ
T2 sequence (Z9LXF2D8B5 1-325): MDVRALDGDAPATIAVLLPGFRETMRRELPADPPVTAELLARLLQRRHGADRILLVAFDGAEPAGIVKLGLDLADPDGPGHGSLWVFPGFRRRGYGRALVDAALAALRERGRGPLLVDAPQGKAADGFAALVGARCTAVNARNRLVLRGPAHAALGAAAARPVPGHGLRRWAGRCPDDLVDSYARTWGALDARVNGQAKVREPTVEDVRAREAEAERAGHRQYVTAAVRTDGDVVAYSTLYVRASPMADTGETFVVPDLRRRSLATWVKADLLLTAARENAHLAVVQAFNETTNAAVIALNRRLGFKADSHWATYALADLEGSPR

[3] = molecular target: T3, GrhO6 (Streptomyces sp. JP95, UniProt Q8KSX5, K425M); assay: HPLC assay, 5a/5b formation; assay type: biochemical; conditions: with HyalJ; activity similar to wild type; substrate not named explicitly for the variant
T3 construct: recombinant, purified; group A FAD monooxygenase; acetylated at K5 by HyalJ in some assays
T3 sequence (Q8KSX5 entry or part of it K425M): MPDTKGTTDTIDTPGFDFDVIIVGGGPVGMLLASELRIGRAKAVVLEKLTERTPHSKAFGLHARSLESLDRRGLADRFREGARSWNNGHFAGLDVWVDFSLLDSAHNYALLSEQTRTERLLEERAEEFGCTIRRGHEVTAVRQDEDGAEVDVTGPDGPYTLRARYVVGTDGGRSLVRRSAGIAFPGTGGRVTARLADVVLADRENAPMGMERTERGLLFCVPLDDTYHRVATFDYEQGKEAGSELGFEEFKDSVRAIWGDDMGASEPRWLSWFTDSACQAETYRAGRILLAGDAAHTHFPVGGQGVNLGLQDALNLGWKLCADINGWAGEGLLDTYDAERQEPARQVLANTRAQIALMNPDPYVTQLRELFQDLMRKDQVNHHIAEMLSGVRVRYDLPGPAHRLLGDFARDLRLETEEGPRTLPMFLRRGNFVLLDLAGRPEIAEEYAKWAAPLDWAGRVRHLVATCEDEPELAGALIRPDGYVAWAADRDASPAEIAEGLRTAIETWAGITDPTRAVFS

[4] = molecular target: T4, GrhO6 (Streptomyces sp. JP95, UniProt Q8KSX5); assay: HPLC time course in cascade; assay type: biochemical; conditions: NADPH, GrhO5, GrhO1, with HyalJ; 4a generated in situ from 3b
T4 construct: recombinant, purified; group A FAD monooxygenase; acetylated at K5 by HyalJ in some assays
T4 sequence (Q8KSX5 1-520): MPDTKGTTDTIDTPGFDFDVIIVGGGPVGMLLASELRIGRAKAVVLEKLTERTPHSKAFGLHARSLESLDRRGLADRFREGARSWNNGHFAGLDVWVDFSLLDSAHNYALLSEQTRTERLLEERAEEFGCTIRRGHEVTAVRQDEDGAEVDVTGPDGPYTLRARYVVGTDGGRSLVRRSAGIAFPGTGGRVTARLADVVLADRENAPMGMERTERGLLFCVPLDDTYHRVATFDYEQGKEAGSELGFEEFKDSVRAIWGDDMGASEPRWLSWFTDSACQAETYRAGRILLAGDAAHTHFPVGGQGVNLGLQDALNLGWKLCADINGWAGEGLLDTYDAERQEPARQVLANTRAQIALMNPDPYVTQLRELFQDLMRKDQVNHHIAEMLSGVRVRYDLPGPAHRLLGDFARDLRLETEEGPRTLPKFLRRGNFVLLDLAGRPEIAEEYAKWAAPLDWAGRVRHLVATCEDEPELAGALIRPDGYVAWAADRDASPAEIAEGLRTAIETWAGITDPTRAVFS

[5] = molecular target: T5, GrhO10 (Streptomyces sp. JP95, UniProt Q8KSW1); assay: HPLC, UPLC-HRMS/MS of product […]; assay type: biochemical; conditions: 4a/4b generated in situ by cascade (GrhO5, GrhO1, NADPH); redox form not resolved; low turnover
T5 construct: recombinant from E. coli, Ni-NTA purified (His-tag)
T5 sequence (Q8KSW1 1-249): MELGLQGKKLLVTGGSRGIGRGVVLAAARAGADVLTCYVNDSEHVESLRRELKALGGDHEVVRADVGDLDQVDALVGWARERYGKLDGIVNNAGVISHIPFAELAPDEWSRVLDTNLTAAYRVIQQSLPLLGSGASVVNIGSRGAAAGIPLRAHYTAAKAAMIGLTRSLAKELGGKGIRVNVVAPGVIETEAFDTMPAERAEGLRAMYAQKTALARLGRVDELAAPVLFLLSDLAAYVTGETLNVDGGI

[6] = molecular target: T6, GrhO6 (Streptomyces sp. JP95, UniProt Q8KSX5, K57M); assay: HPLC assay, 5a/5b formation; assay type: biochemical; conditions: with HyalJ; activity similar to wild type; substrate not named explicitly for the variant
T6 construct: recombinant, purified; group A FAD monooxygenase; acetylated at K5 by HyalJ in some assays
T6 sequence (Q8KSX5 entry or part of it K57M): as the sequence (Q8KSX5 entry or part of it K425M) above, with K57M, M425K counted along it

[7] = molecular target: T4, GrhO6; assay: turnover before digest and UPLC-HRMS; assay type: biochemical; conditions: with AcCoA and HyalJ
[8] = molecular target: T5, GrhO10; assay: HPLC time course of 6b formation; assay type: biochemical; conditions: isolated 5b
[9] = molecular target: T4, GrhO6; assay: HPLC enzyme assay; assay type: biochemical; conditions: inhibitor of turnover of 4a(b); 8 produced in situ, its structure only inferred from MS
[10] = equal effect to AcCoA with apo HyalJ

## COc1cc(O)c2c(O)c3c(c(O)c2c1O)OC1(CCc2cc4cc(C)oc(=O)c4c(O)c2O1)C3=O (centres unmarked) [5a, dihydro-7,8-dideoxy-6-oxo-griseorhodin C]
[1]
  HPLC coupled cascade assay, 6a/6b formation: When GrhO10 was substituted for HyalO10 in the enzymatic assays, 6a/6b was formed

## CC(=O)SCCNC(=O)CCNC(=O)[C@H](O)C(C)(C)COP(=O)(O)OP(=O)(O)OC[C@H]1O[C@@H](n2cnc3c(N)ncnc32)[C@H](O)[C@@H]1OP(=O)(O)O [acetyl-CoA]
[2]; acetylates GrhO6 at K5, restores activity of apo HyalJ
  co-purification from E. coli, UPLC-HRMS of released ligand: which clearly confirmed the presence of AcCoA

## COc1cc(O)c2c(O)c3c(c(O)c2c1O)C(=O)OC1(CCc2cc4cc(C)oc(=O)c4c(O)c2O1)C3=O (centres unmarked) [4a, dihydrolenticulone]
[3]
  HPLC assay, 5a/5b formation: both were able to mediate the generation of 5a/5b in the presence of HyalJ
[4]
  HPLC time course in cascade: Compound 4a is then further converted into 5a/5b
[5]
  HPLC, UPLC-HRMS/MS of product 8: ketoreductases are also capable of catalyzing keto reduction of 4a/4b
[6]
  HPLC assay, 5a/5b formation: both were able to mediate the generation of 5a/5b in the presence of HyalJ

## COC1=CC(=O)c2c(O)c3c(c(O)c2C1=O)C(=O)OC1(CCc2cc4cc(C)oc(=O)c4c(O)c2O1)C3=O (centres unmarked) [4b, lenticulone]
[7]
  turnover before digest and UPLC-HRMS: GrhO6 after turnover of 4b in the presence of AcCoA and HyalJ

## CCC(=O)SCCNC(=O)CCNC(=O)[C@H](O)C(C)(C)COP(=O)(O)OP(=O)(O)OC[C@H]1O[C@@H](n2cnc3c(N)ncnc32)[C@H](O)[C@@H]1OP(=O)(O)O [propionyl-CoA]
[2]; [10]
  co-purification from E. coli, UPLC-HRMS of released ligand: also with almost identical amounts of propionyl-CoA and methylmalonyl-CoA

## CC(C(=O)O)C(=O)SCCNC(=O)CCNC(=O)[C@H](O)C(C)(C)COP(=O)(O)OP(=O)(O)OC[C@H]1O[C@@H](n2cnc3c(N)ncnc32)[C@H](O)[C@@H]1OP(=O)(O)O (some centres unmarked) [methylmalonyl-CoA]
[2]; [10]
  co-purification from E. coli, UPLC-HRMS of released ligand: also with almost identical amounts of propionyl-CoA and methylmalonyl-CoA

## COC1=CC(=O)c2c(O)c3c(c(O)c2C1=O)OC1(CCc2cc4cc(C)oc(=O)c4c(O)c2O1)C3=O (centres unmarked) [5b, 7,8-dideoxy-6-oxo-griseorhodin C]
[8]
  HPLC time course of 6b formation: the enzymatic formation of 6b was clearly observed in the presence of GrhO10

## COc1cc(O)c2c(O)c3c(c(O)c2c1O)C(=O)OC1(CCc2cc4cc(C)oc(=O)c4c(O)c2O1)C3O (centres unmarked) [compound 8, 8]
[9]
  HPLC enzyme assay: GrhO6 showed strongly decreased activity on 4a(b) even in the presence of only small amounts
